A value given as a limit tells only on which side of the number the result lay.

The first experiment concerns the target Cyclin-dependent kinase 2/cyclin A (Homo sapiens, UniProt P24941).
Description: Inhibition of Cyclin A-cyclin-dependent kinase 2
Consider `CNS(=O)(=O)c1ccc(-n2nc(C(N)=O)c3ccc4[nH]ncc4c32)cc1`, for which the IC50 was determined as 20 nM.

For the molecule `CCOC(=O)c1nn(-c2ccc(C)cc2)c2c1CCc1[nH]ncc1-2`, the IC50 is 8500 nM.

Take `CN1CCN(S(=O)(=O)c2ccc(-n3nc(C(N)=O)c4ccc5[nH]ncc5c43)cc2)CC1`: the IC50 amounted to 150 nM.

The molecule `C=CCONC(=O)c1nn(-c2ccc(OC)cc2)c2c1CCc1[nH]ncc1-2` showed an IC50 of 4500 nM.

Consider `CCOC(=O)c1nn(-c2ccc(OC)cc2)c2c1CCc1[nH]ncc1-2`, for which the IC50 was determined as 8100 nM.

As to `C=CCONC(=O)c1nn(S(=O)(=O)NCCCC)c2c1CCc1n[nH]cc1-2`, the IC50 is 2850 nM.

Regarding `NC(=O)c1nn(-c2cccnc2)c2c1CCc1[nH]ncc1-2`, half-maximal inhibition (IC50) required 1600 nM.

For `CCCCNS(=O)(=O)n1nc(C(N)=O)c2c1-c1c[nH]nc1CC2`, the IC50 worked out at 210 nM.

In turn, `CCCCNS(=O)(=O)n1nc(C(=O)O)c2c1-c1c[nH]nc1CC2` returned an IC50 of 1200 nM.

The molecule `COc1ccc(-n2nc(C(=O)NN)c3ccc4[nH]ncc4c32)cc1` returned an IC50 of 210 nM.

`CCCCNS(=O)(=O)n1nc(C(N)=O)c2ccc3[nH]ncc3c21` registered a concentration for half-maximal inhibition (IC50) of 2 nM.

Molecule `NC(=O)c1nn(-c2ccc(OC(F)(F)F)cc2)c2c1CCc1[nH]ncc1-2` yielded an IC50 of 510 nM.

As to `NC(=O)c1nn(-c2ccc(C3=NCC=N3)cc2)c2c1CCc1n[nH]cc1-2`, the IC50 came to 250 nM.

Consider `NC(=O)c1nn(CCO)c2c1CCc1[nH]ncc1-2`, for which half-maximal inhibition (IC50) was put at 1150 nM.

For the molecule `COc1ccc(-n2nc(C(=O)O)c3c2-c2cn[nH]c2CC3)cc1`, the IC50 worked out at 2100 nM.

Take `CN1CCN(S(=O)(=O)c2ccc(-n3nc(C(N)=O)c4c3-c3cn[nH]c3CC4)cc2)CC1`: the half-maximal inhibitory concentration (IC50) was more than 10000 nM.

The molecule `CS(=O)(=O)c1ccc(-n2nc(C(N)=O)c3c2-c2cn[nH]c2CC3)cc1` returned a half-maximal inhibitory concentration (IC50) of 30 nM.

On to `NC(=O)c1nn(-c2ccc(C(F)(F)F)cc2)c2c1CCc1[nH]ncc1-2`, for which the half-inhibitory concentration (IC50) was 80 nM.

Take `NC(=O)c1nn(-c2ccc(Cl)cc2)c2c1CCc1[nH]ncc1-2`: half-maximal inhibition (IC50) was put at 160 nM.

In turn, `C=CCONC(=O)c1nn(S(=O)(=O)NCCCC)c2c1ccc1[nH]ncc12` gave an IC50 of 200 nM.

Take `CC(C)CC1Cc2c[nH]nc2-c2c[nH]nc21` (configuration not stated): inhibition was half-maximal at 87 nM (IC50).

`CNS(=O)(=O)c1ccc(-n2nc(C(N)=O)c3c2-c2cn[nH]c2CC3)cc1` returned an IC50 of 40 nM.

`NC(=O)c1nn(-c2ccc(C3=NCC=N3)cc2)c2c1ccc1[nH]ncc12` registered an IC50 of 75 nM.

For `N#Cc1ccc(-n2nc(C(N)=O)c3c2-c2cn[nH]c2CC3)cc1`, 190 nM corresponded to half-maximal inhibition (IC50).

The molecule `CCCCNS(=O)(=O)c1ccc(-n2nc(C(=O)OCC)c3c2-c2cn[nH]c2CC3)cc1` returned a half-inhibitory concentration (IC50) of 10000 nM.

For the molecule `Cc1cccc(-n2nc(C(N)=O)c3ccc4[nH]ncc4c32)c1`, the midpoint of inhibition, the IC50, lay at 9 nM.

In turn, `CCCCNS(=O)(=O)n1nc(C(=O)NC)c2ccc3[nH]ncc3c21` gave an IC50 of 610 nM.

As to `COc1ccc(-n2nc(C#N)c3ccc4[nH]ncc4c32)cc1`, the IC50 amounted to 1750 nM.

`COc1ccc(-n2nc(C(=O)NN)c3c2-c2cn[nH]c2CC3)cc1` registered an IC50 of 2100 nM.

For `COc1ccc(-n2nc(N)c3ccc4[nH]ncc4c32)cc1`, the IC50 is more than 10000 nM.

Take `CCCCNS(=O)(=O)n1nc(C(=O)NC)c2c1-c1c[nH]nc1CC2`: the IC50 is 600 nM.

As to `CCOC(=O)c1nn(-c2ccc(OC)cc2)c2c1ccc1[nH]ncc12`, half-maximal inhibition (IC50) was put at 7500 nM.

`CC(=O)c1nn(-c2ccc(C)cc2)c2c1CCc1[nH]ncc1-2` came in with an IC50 of 900 nM.

The molecule `COc1ccc(-n2nc(C(=O)O)c3ccc4[nH]ncc4c32)cc1` returned a half-maximal inhibitory concentration (IC50) of 210 nM.

Target in another experiment: not listed separately
As to the kind of experiment: Inhibition of Glycogen synthase kinase-3 beta.
Take `Cc1ccc(-n2nc(C(N)=O)c3c2-c2c[nH]nc2CC3)cc1`: the half-maximal inhibitory concentration (IC50) turned out to be 460 nM.

For `CC(C)CC1Cc2c[nH]nc2-c2c[nH]nc21` (configuration not stated), the IC50 is more than 10000 nM.

Molecule `Cc1ccc(-n2nc(C(N)=O)c3ccc4[nH]ncc4c32)cc1` gave an IC50 of 23 nM.

As a reminder, the IC50 is the midpoint of a concentration-inhibition curve. A lower IC50 goes with inhibition by little substance.
